From patent US11173173B2, “Methods for treating chemoresistant cancer-initiating cells” (UNIVERSITY OF CONNECTICUT, priority 2015, dated 2021)

Tests used:
[1] = cited from earlier work
colon cancer = details: in vitro; cited from earlier work
pan β-catenin = assay: Western analysis of pan β-catenin in compound-treated TOP and FOP cells; details: TOP and FOP cells treated 48 hours at EC90, EC50, EC25
Experimental: (§1) Cytotoxicity profiles (CTG) of compounds were also determined. […] TOP and FOP cells were treated with candidate compounds at EC90, EC50 and EC25 derived from (b) for 48 hours, washed and flash frozen for Western analysis (c).
(§2) Activity of compounds was tested against HEK-TOP cells vs. HEK FOP cells for inhibition of luciferase activity. The cytotoxicity profiles of the compounds were also tested using Cell Titer Glo assay (Promega) on HEK-TOP cell lines. […] The HEK cells and HEK Top cells were plated at 300,000 cells/well in 6 well plates and were treated in duplicate with EC90, EC50 and EC25 concentrations of the 25 repurchased compounds as well as three controls. After 48 h of exposure, the cells were washed with PBS and flash frozen. The frozen cells were lysed directly in plates for Western analysis.

[2] = test system: BM cells isolated from leukemic Pten:β-cat^Act double mutants (LSCs, HSPCs); assay: In vitro treatment of BM cells from leukemic mice, flow cytometry for LSCs and HSPCs; assay type: cell-based, mouse; details: BM cells from leukemic double mutants in vitro
Experimental: Doxorubicin, 0105375, and thioguanosine were added to 11, 33 or 100 nM and cultured for 72 hours and analyzed by flow cytometry for LSCs (a) and HSPCs (b) as in FIG. 1. Fold change before and after culture for each population is indicated relative to equivalent vehicle control concentrations.
Bone marrow cells from leukemic mice at 8 weeks post-induction were cultured overnight at 5-20×10^4 cells per well in 96-well U-bottom tissue culture plates (Becton, Dickinson and Company; Cat. No. 353077) in HSC expansion media in low O2 conditions as previously described (Perry, J. M. et al. Cooperation between both Wnt/{beta}-catenin and PTEN/PI3K/Akt signaling promotes primitive hematopoietic stem cell self-renewal and expansion. Genes Dev 25, 1928-1942 (2011)). Doxorubicin (Sigma; D1515), 0105375 ((S)-N-(2-bromobenzyl)-N-(1-hydroxy-3-phenylpropan-2-yl)ethenesulfonamide, University of Kansas CMLD compound), or Thioguanosine was mixed with HSC expansion media and added to the cultures to obtain final concentrations of 11, 33, 100 nM. Equivalent amounts of DMSO alone (vehicle control) were added to parallel cultures for comparison. Half-media changes were performed approximately every 24 hrs. Cultures were analyzed after 72 hrs exposure to the indicated drug.

pS^552-β-catenin = assay: Western analysis of pS552-β-catenin in compound-treated TOP and FOP cells
Experimental: as §1, §2

SMILES | activity in vivo [1] | reversal of resistance to PI3K and Akt inhibitors (colon cancer) | effect on pan β-catenin (Western) (pan β-catenin) | potency relative to DXR [2] | inhibition of pS552-β-catenin (Western) (pS^552-β-catenin; TOP and FOP cells treated 48 hours at EC90, EC50, EC25) | concentration needed to inhibit pS552-β-catenin (pS^552-β-catenin; relatively high concentrations)
Oc1nc(-c2ccc(C(F)(F)F)cc2)nc2c1CSCC2 [XAV-939] | low activity of this inhibitor in vivo | reverse this resistance in vitro |  |  |  | 
C=CS(=O)(=O)N(Cc1ccccc1Br)[C@H](CO)Cc1ccccc1 [compound 0105375, (S)-N-(2-bromobenzyl)-N-(1-hydroxy-3-phenylpropan-2-yl)ethenesulfonamide] |  |  | no significant effect on pan β-catenin | far less potency than DXR | effectively inhibited pS^552-β-catenin | > 1 μM
